Assay results published in patent publication US9253983B2, “Triazole compound and use thereof” (KUREHA CORPORATION, priority 2011, dated 2016).

Tests used:
Puccinia recondita = assay: Controlling effect on wheat brown rust (leaf rust) by foliage spray treatment (Tests 1 and 2); format: in vivo; settings: foliage spray 0.8 mg/L, 1,000 L/ha, 11 days after inoculation
Procedure: The wheat plants had been grown in square plastic pots (6 cm×6 cm). The suspensions were left to dry, and inoculated with spores of Puccinia recondita (adjusted at 200 spores per field of vision, Gramin S was added at 60 ppm) by spraying, and kept at 25° C. in a high humidity environment for 48 hours. After that, the plants were kept in a greenhouse. 11 days after the inoculation, the lesion degree of the wheat leaf rust was examined in accordance with the criteria shown in Table 4, and the protective values were calculated by the following equation. Protective value (%)=(1−Average lesion degree in sprayed plot/Average lesion degree in unsprayed plot)×100
The wheat plants had been grown in square plastic pots (6 cm×6 cm). The leaves were air-dried, and inoculated with spores of Puccinia recondita (adjusted at 200 spores per field of vision, Gramin S was added at 60 ppm) by spraying, and kept at 25° C. in a high humidity environment for 48 hours. After that, the plants were kept in a greenhouse. 11 days after the inoculation, the lesion degree of the wheat leaf rust was examined, and the protective values were calculated as were in Experiment Example 2.

wheat = assay: Necrosis (adverse effects) of seed treatment on wheat seeds; format: in vivo; settings: 20 days after sowing
Procedure: A pot experiment was performed to evaluate necrosis (adverse effects) caused by the seed treatment. Compound (1-1a) and Compound (1-2a), each which was dissolved in DMSO to make up such a concentration that the seeds would be treated in treatment amount of 2 g to 200 g ai/100 kg seeds, were each applied to wheat seeds in a vial, and thereafter 8 wheat seeds were sowed in an 80-cm^2 pot. The pot was kept in a greenhouse with water supplied to its bottom. 20 days after the sowing, an extent of necrosis (percentage of necrotic surface area) of wheat was evaluated. A necrosis index was derived from the percentage of the necrotic surface area, based on the criteria shown by Table 13. In Table 13, a smaller necrosis index indicates a lesser adverse effect of necrosis caused by the treatment with the use of a plant disease controlling agent.

Phaeosphaeria nodorum = assay: Test 1 for antifungal effect, plate medium: P.n; format: cell-based; settings: PDA plate medium
Procedure: (§1) Compound (1-1a) or Compound (1-2a) was dissolved in dimethyl sulfoxide, and the resulting solution was added to a PDA medium (potato dextrose-agar medium) at about 60° C. The medium and the solution were mixed thoroughly in a conical flask, poured into a petri dish, and allowed to solidify. In this way, a plate medium containing Compound (1-1a) or Compound (1-2a) at a certain concentration was prepared.
(§2) Meanwhile, test microorganisms cultured on a plate medium in advance were cut out with the use of a cork borer 4 mm in diameter, and were inoculated onto the compound-containing plate medium. After the inoculation, the microorganisms were cultured at their optimum growth temperatures (for example, refer to LIST OF CULTURES 1996 microorganisms 10th edition, Institute for Fermentation (foundation)) for 1 day to 7 days, and their growth was determined by measuring the diameter of their flora. The extent of growth of the microorganisms on the compound-containing plate medium was compared with that of microorganisms on a plate medium where no compound was added, and mycelial growth inhibition rate was calculated by the following equation: R=100(dc−dt)/dc where R is mycelial growth inhibition rate (%), dc is the flora diameter in untreated plate, and dt is the flora diameter in plate treated with the compound.
(§3) A larger antifungal index indicates a better antifungal effect.

Gaeumannomyces graminis = assay: Test 1 for antifungal effect, plate medium: G.g; format: cell-based; settings: PDA plate medium
Procedure: as §1, §2, §3

Gibberella fujikuroi = assay: Test 1 for antifungal effect, plate medium: G.f; format: cell-based; settings: PDA plate medium
Procedure: as §1, §2, §3

Rhizopus oryzae = assay: Test 1 for antifungal effect, plate medium: R.o; format: cell-based; settings: PDA plate medium
Procedure: as §1, §2, §3

Sclerotinia sclerotiorum = assay: Test 1 for antifungal effect, plate medium: S.s; format: cell-based; settings: PDA plate medium
Procedure: as §1, §2, §3

Botrytis cinerea = assay: Test 1 for antifungal effect, plate medium: B.c; format: cell-based; settings: PDA plate medium
Procedure: as §1, §2, §3

Glomerella cingurata = assay: Test 1 for antifungal effect, plate medium: G.c; format: cell-based; settings: PDA plate medium
Procedure: as §1, §2, §3

Pyrenophora graminea = assay: Test 2 for antifungal effect, plate medium: P.g; format: cell-based; settings: PDA plate medium
Procedure: (§4) Compound (1-1b) or Compound (1-2b) was dissolved in dimethyl sulfoxide, and the resulting solution was added to a PDA medium (potato dextrose-agar medium) at about 60° C. The medium and the solution were mixed thoroughly in a conical flask, poured into a petri dish, and allowed to solidify. In this way, a plate medium containing Compound (1-1b) or Compound (1-2b) at a certain concentration was prepared.
(§5) Meanwhile, test microorganisms cultured on a plate medium in advance were cut out with the use of a cork borer 4 mm in diameter, and were inoculated onto the compound-containing plate medium. After the inoculation, the pathogens were cultured at their optimum growth temperatures (for example, refer to LIST OF CULTURES 1996 microorganisms 10th edition, Institute for Fermentation (foundation)) for 1 day to 7 days, and their growth was determined by measuring the diameter of their flora. The extent of growth of the pathogens on the compound-containing plate medium was compared with that of pathogens on a plate medium where no compound was added, and mycelial growth inhibition rate was calculated as in Experiment Example 10. Note that, in Experiment Example 11, controls used in the antifungal effect tests are Compound (1-1a) and Compound (1-2a) instead of Compound (1-1b) and Compound (1-2b), respectively.
(§6) The results were rated on a 1-to-5 scale as in Experiment Example 10.

Ustilago nuda = assay: Test 2 for antifungal effect, plate medium: U.n; format: cell-based; settings: PDA plate medium
Procedure: as §4, §5, §6

CC1(CCl)CCC(Cc2ccc(Cl)cc2)C1(O)Cn1cncn1 (single isomer, unassigned) [Compound (1-1b), (1,2-cis, 1,5-cis)-5-(4-chlorobenzyl)-2-chloromethyl-2-methyl-1-(1H-1,2,4-triazole-1-ylmethyl)cyclopentanol]
Protective value (%) (Puccinia recondita): 29%
Necrosis index (wheat; treatment amount 2 g ai/100 kg seeds): 0 (Less than 1%)
Necrosis index (wheat; treatment amount 20 g ai/100 kg seeds): 2 (Less than 20% but not less than 5%)
Necrosis index (wheat; treatment amount 200 g ai/100 kg seeds): 2 (Less than 20% but not less than 5%)
Antifungal index (mycelial growth inhibition rate) (Phaeosphaeria nodorum; 0.16 mg/L): 2 (Less than 70% but not less than 60%)
Antifungal index (mycelial growth inhibition rate) (Phaeosphaeria nodorum; 0.31 mg/L): 2 (Less than 70% but not less than 60%)
Antifungal index (mycelial growth inhibition rate) (Phaeosphaeria nodorum; 0.63 mg/L): 2 (Less than 70% but not less than 60%)
Antifungal index (mycelial growth inhibition rate) (Phaeosphaeria nodorum; 1.25 mg/L): 3 (Less than 80% but not less than 70%)
Antifungal index (mycelial growth inhibition rate) (Phaeosphaeria nodorum; 2.50 mg/L): 5 (90% or greater)
Antifungal index (mycelial growth inhibition rate) (Gaeumannomyces graminis; 0.16 mg/L): 1 (Less than 60%)
Antifungal index (mycelial growth inhibition rate) (Gaeumannomyces graminis; 0.31 mg/L): 1 (Less than 60%)
Antifungal index (mycelial growth inhibition rate) (Gaeumannomyces graminis; 0.63 mg/L): 2 (Less than 70% but not less than 60%)
Antifungal index (mycelial growth inhibition rate) (Gaeumannomyces graminis; 1.25 mg/L): 5 (90% or greater)
Antifungal index (mycelial growth inhibition rate) (Gaeumannomyces graminis; 2.50 mg/L): 5 (90% or greater)
Antifungal index (mycelial growth inhibition rate) (Gibberella fujikuroi; 0.16 mg/L): 3 (Less than 80% but not less than 70%)
Antifungal index (mycelial growth inhibition rate) (Gibberella fujikuroi; 0.31 mg/L): 4 (Less than 90% but not less than 80%)
Antifungal index (mycelial growth inhibition rate) (Gibberella fujikuroi; 0.63 mg/L): 5 (90% or greater)
Antifungal index (mycelial growth inhibition rate) (Gibberella fujikuroi; 1.25 mg/L): 5 (90% or greater)
Antifungal index (mycelial growth inhibition rate) (Gibberella fujikuroi; 2.50 mg/L): 5 (90% or greater)
Antifungal index (mycelial growth inhibition rate) (Rhizopus oryzae; 0.16 mg/L): 1 (Less than 60%)
Antifungal index (mycelial growth inhibition rate) (Rhizopus oryzae; 0.31 mg/L): 1 (Less than 60%)
Antifungal index (mycelial growth inhibition rate) (Rhizopus oryzae; 0.63 mg/L): 1 (Less than 60%)
Antifungal index (mycelial growth inhibition rate) (Rhizopus oryzae; 1.25 mg/L): 1 (Less than 60%)
Antifungal index (mycelial growth inhibition rate) (Rhizopus oryzae; 2.50 mg/L): 4 (Less than 90% but not less than 80%)
Antifungal index (mycelial growth inhibition rate) (Sclerotinia sclerotiorum; 0.16 mg/L): 3 (Less than 80% but not less than 70%)
Antifungal index (mycelial growth inhibition rate) (Sclerotinia sclerotiorum; 0.31 mg/L): 5 (90% or greater)
Antifungal index (mycelial growth inhibition rate) (Sclerotinia sclerotiorum; 0.63 mg/L): 5 (90% or greater)
Antifungal index (mycelial growth inhibition rate) (Sclerotinia sclerotiorum; 1.25 mg/L): 5 (90% or greater)
Antifungal index (mycelial growth inhibition rate) (Sclerotinia sclerotiorum; 2.50 mg/L): 5 (90% or greater)
Antifungal index (mycelial growth inhibition rate) (Botrytis cinerea; 0.16 mg/L): 1 (Less than 60%)
Antifungal index (mycelial growth inhibition rate) (Botrytis cinerea; 0.31 mg/L): 1 (Less than 60%)
Antifungal index (mycelial growth inhibition rate) (Botrytis cinerea; 0.63 mg/L): 3 (Less than 80% but not less than 70%)
Antifungal index (mycelial growth inhibition rate) (Botrytis cinerea; 1.25 mg/L): 4 (Less than 90% but not less than 80%)
Antifungal index (mycelial growth inhibition rate) (Botrytis cinerea; 2.50 mg/L): 5 (90% or greater)
Antifungal index (mycelial growth inhibition rate) (Glomerella cingurata; 0.16 mg/L): 2 (Less than 70% but not less than 60%)
Antifungal index (mycelial growth inhibition rate) (Glomerella cingurata; 0.31 mg/L): 4 (Less than 90% but not less than 80%)
Antifungal index (mycelial growth inhibition rate) (Glomerella cingurata; 0.63 mg/L): 5 (90% or greater)
Antifungal index (mycelial growth inhibition rate) (Glomerella cingurata; 1.25 mg/L): 5 (90% or greater)
Antifungal index (mycelial growth inhibition rate) (Glomerella cingurata; 2.50 mg/L): 5 (90% or greater)
Antifungal index (mycelial growth inhibition rate) (Pyrenophora graminea; 0.04 mg/L): 3 (Less than 80% but not less than 70%)
Antifungal index (mycelial growth inhibition rate) (Pyrenophora graminea; 0.08 mg/L): 4 (Less than 90% but not less than 80%)
Antifungal index (mycelial growth inhibition rate) (Pyrenophora graminea; 0.16 mg/L): 5 (90% or greater)
Antifungal index (mycelial growth inhibition rate) (Pyrenophora graminea; 0.31 mg/L): 5 (90% or greater)
Antifungal index (mycelial growth inhibition rate) (Pyrenophora graminea; 0.63 mg/L): 5 (90% or greater)
Antifungal index (mycelial growth inhibition rate) (Pyrenophora graminea; 1.25 mg/L): 5 (90% or greater)
Antifungal index (mycelial growth inhibition rate) (Ustilago nuda; 0.04 mg/L): 1 (Less than 60%)
Antifungal index (mycelial growth inhibition rate) (Ustilago nuda; 0.08 mg/L): 1 (Less than 60%)
Antifungal index (mycelial growth inhibition rate) (Ustilago nuda; 0.16 mg/L): 2 (Less than 70% but not less than 60%)
Antifungal index (mycelial growth inhibition rate) (Ustilago nuda; 0.31 mg/L): 3 (Less than 80% but not less than 70%)
Antifungal index (mycelial growth inhibition rate) (Ustilago nuda; 0.63 mg/L): 4 (Less than 90% but not less than 80%)
Antifungal index (mycelial growth inhibition rate) (Ustilago nuda; 1.25 mg/L): 5 (90% or greater)
